Data from patent publication US20260060944A1, “PHARMACEUTICAL COMPOSITION AND USE THEREOF” (priority 2022, published 2026).

Legend:
[1] = test system: glioblastoma (U-87) cell line; assay: Cell survival rate (MTS) of U-87 cells; type: cell-based, Human
Description: (§1) Human cancer cell lines, including non-small cell lung cancer (A549), glioblastoma (U87), glioblastoma (T98G), erythroleukemia type cell line (K-562), acute monocytic leukemia (THP-1), hepatocellular carcinoma (HepG2), colorectal cancer (HCT116), ovarian cancer (TOV-21G), triple-negative breast cancer (MDA-MB-231), or drug-resistant human breast cancer (MCF7-resistant), were cultured in media supplemented with 10% (v/v) fetal bovine serum (FBS) (Penicillin-Streptomycin Solution, ACE Biolabs, CC1009), glutamine-enriched Nutrient Mixture F-12 Ham Kaighn's Modification (F-12/K, SIGMA-ALDRICH, USA), and RPMI-1640 (HiMedia Laboratories LLC, USA). The cell lines were separately incubated in a 5% CO2 atmosphere at 37° C. using a controlled incubator (Astec-SCA-165DS).
(§2) Different cancer cell lines were seeded in 96-well plates and allowed to adhere for 24 hours. Cells were then treated with combinations of three drugs, while untreated cells served as the control group. 20 μL of MTS reagent (Promega, USA) was added to each well and incubated at 37° C. for one hour. Optical density (OD) was measured at 490 nm using an ELISA detector (BioTek EPOCH2) to evaluate the ell viability and proliferation by using the following formula: […]
(§3) In some embodiments of the present invention, drug concentrations used for testing cancer cell lines is in nM and the effective dose range ranged from 0.8 nM to 83 nM.
To evaluate the inhibitory effect of the pharmaceutical composition of the present invention on the survival rate of glioblastoma (U-87) cell line, analysis on survival rate was performed.
The active copper ion used in this study was copper gluconate. […] Using the pharmaceutical composition, the concentrations could be reduced while achieving a higher inhibition rate.

[2] = test system: glioblastoma (T98G) cell line; assay: Cell survival rate (MTS) of T98G cells; type: cell-based, Human
Description: as §1, §2, §3
To evaluate the inhibitory effect of the pharmaceutical composition of the present invention on the survival rate of glioblastoma (T98G) cell line, analysis on survival rate was performed.
The active copper ion used in this study was copper gluconate.

[3] = test system: human non-small cell lung cancer (A549) cell lines; assay: Cell survival rate (MTS) of A549 cells; type: cell-based; settings: for reduction in survival rate: individually administered at concentrations ranging from 2 to 80 nM
Description: as §1, §2, §3
To evaluate whether the pharmaceutical composition containing various pharmacologically active ions could produce synergistic drug effects, tests were conducted on human non-small cell lung cancer (A549) cell lines. The dose units in Table 2 are expressed in nM. The pharmacologically active ion used in this study was gluconate ion.
To evaluate whether varying dosages of the pharmaceutical composition of the present invention could inhibit the survival rate of human non-small cell lung cancer cell line (A549), cell survival analyses of A549 were conducted.
In this experiment, the pharmacologically active copper ion was cupric in the form of copper gluconate.

[4] = test system: human lung squamous cell carcinoma (H520) cell line; assay: In vivo tumor suppression, H520 subcutaneous tumor model in nude mice; set-up: species or system Balb/c nude mice; settings: H520 tumors in nude mice, oral once daily
[5] = test system: human non-small cell lung cancer (A549) cell line; assay: In vivo tumor suppression, A549 subcutaneous tumor model in nude mice; set-up: species or system Balb/c nude mice; settings: A549 tumors in nude mice; for Tumor Weight: after sacrifice
Source text: (§4) Female, 5-week-old Balb/c CAnN.Cg-Foxnlnu/CrlNarl nude mice were obtained from the National Laboratory Animal Center. […] Experiments commenced when they reached six weeks of age.
(§5) Nude mice of six weeks of age were used to establish two lung epithelial carcinoma and animal models. 1×10^7 cells of Human non-small cell lung cancer (NSCLC) cell line A549 and of human lung squamous carcinoma cell line H520, provided by the Food Industry Research and Development Institute in Taiwan, were subcutaneously injected 100 μL into the dorsal area near the right hind limb.
A549 model: 6 mice per group, administered orally once daily for 25 days.
(§6) H520 model: 7 mice per group, administered orally once daily for 13 days. The pharmacologically active multivalent ions used were copper ions in the form of copper gluconate.
(§7) Tumor volume was measured weekly using a tumor measurement device (TM900, Peira, Turnhout, Belgium). After five weeks of drug administration, the mice were sacrificed, and tumors were excised from the right hind limb. Tumor volume was calculated based on the longest and shortest diameters using the formula: […]
(§8) The tumors were then weighed and recorded. Tumor inhibition rates were calculated using the control group as a baseline: […]
A tumor model was established in nude mice via subcutaneous injection. Tumor size was monitored for 14 days, after which the mice were divided into six groups and treated with the pharmaceutical composition. The pharmaceutical-using group continued to be fed the test drug by oral gavage.

[6] = test system: human lung squamous cell carcinoma (H520) cell line; assay: In vivo tumor suppression, H520 subcutaneous tumor model in nude mice; set-up: species or system Balb/c nude mice; settings: H520 tumors in nude mice
Source text: as §4, §5, §6, §7, §8
A tumor model was established in nude mice via subcutaneous injection. Tumor size was measured over 14 days, after which the mice were then divided into six groups and treated with the pharmaceutical composition. The pharmaceutical-using group continued to be fed the test drug by oral gavage. Due to the rapid growth rate of H520 tumors in vivo, animals were sacrificed when tumors reached a specific size. Tumor model nude mice were sacrificed after 13 days of administration to evaluate changes in tumor growth and observe the inhibitory effect of the test drug on tumors.

[7] = oral once daily for 25 days, when sacrificed
[8] = oral once daily, Day 7 of administration
[9] = oral once daily for 13 days, when sacrificed

CCN(CC)C(=S)SSC(=S)N(CC)CC [Disulfiram]
Survival Rate (%) ([1]; single agent 16 nM): 102.66% | Survival Rate (%) ([1]; single agent 41 nM): 101.02% | Survival Rate (%) ([1]; single agent 83 nM): 63.98% | Survival Rate (%) ([2]; single agent 16 nM): 96.37% | Survival Rate (%) ([2]; single agent 41 nM): 97.27% | Survival Rate (%) ([2]; single agent 83 nM): 96.15% | Survival Rate (%) ([3]; single agent 1 nM (Table 2)): 99.58% | Survival Rate (%) ([3]; single agent 80 nM (Table 3)): 93.85%

COc1cc2ncnc(Nc3ccc(F)c(Cl)c3)c2cc1OCCCN1CCOCC1 [Group S4, Gefitinib]
Tumor Volume ([4]; Day 4 of administration): 259.6 mm^3 | Tumor Volume ([4]; Day 9): 898.6 mm^3 | Tumor Volume ([4]; Day 11): 1290.0 mm^3 | Tumor Weight [5]: 0.197 g | Tumor Volume [5, 7]: 239.6 mm^3 | Tumor Volume [5, 8]: 54.2 mm^3 | Tumor Volume ([5]; oral once daily, Day 11): 69.5 mm^3 | Tumor Volume ([5]; oral once daily, Day 14): 82.0 mm^3 | Tumor Volume ([5]; oral once daily, Day 17): 102.8 mm^3 | Tumor Volume ([5]; oral once daily, Day 20): 141.3 mm^3 | Tumor Volume ([5]; oral once daily, Day 23): 202.6 mm^3 | Tumor Weight ([6]; after sacrifice): 0.981 g | Tumor Volume [6, 9]: 1653.1 mm^3 | Tumor Volume ([6]; oral once daily, Day 7): 506.4 mm^3

O=C(Nc1ccc([N+](=O)[O-])cc1Cl)c1cc(Cl)ccc1O [Niclosamide]
Tumor Volume ([4]; Day 4 of administration): 269.6 mm^3 | Tumor Volume ([4]; Day 9): 802.4 mm^3 | Tumor Volume ([4]; Day 11): 1204.1 mm^3 | Survival Rate (%) ([1]; single agent 8 nM): 89.33% | Survival Rate (%) ([1]; single agent 16 nM): 88.60% | Tumor Weight [5]: 0.330 g | tumor volume inhibition rates compared to Group S1 ([5]; at the time of sacrifice): 12.78% | average tumor weight inhibition rates compared to Group S1 ([5]; following sacrifice): 13.5% | Tumor Volume [5, 7]: 396.1 mm^3 | Tumor Volume [5, 8]: 73.4 mm^3 | Tumor Volume ([5]; oral once daily, Day 11): 89.7 mm^3 | Tumor Volume ([5]; oral once daily, Day 14): 136.3 mm^3 | Tumor Volume ([5]; oral once daily, Day 17): 179.6 mm^3 | Tumor Volume ([5]; oral once daily, Day 20): 219.0 mm^3 | Tumor Volume ([5]; oral once daily, Day 23): 319.8 mm^3 | Survival Rate (%) ([2]; single agent 8 nM): 92.50% | Survival Rate (%) ([2]; single agent 16 nM): 87.87% | Tumor Weight ([6]; after sacrifice): 0.955 g | average tumor weight inhibition rates compared to Group S1 ([6]; after sacrifice): 30.5% | tumor volume inhibition rates compared to Group S1 ([6]; at the time of sacrifice): 30.49% | Tumor Volume [6, 9]: 1604.3 mm^3 | Tumor Volume ([6]; oral once daily, Day 7): 538.8 mm^3 | reduction in survival rate [3]: no significant reduction in survival rate | Survival Rate (%) ([3]; single agent 2 nM (Table 3)): 112.66% | Survival Rate (%) ([3]; single agent 6 nM (Table 2)): 98.00%

[Ca] [calcium]
Survival Rate (%) ([3]; single agent 1 nM (Table 2)): 103.98%

[Fe+2] [ferrous]
Survival Rate (%) ([3]; single agent 1 nM (Table 2)): 106.27%

[Mg] [magnesium]
Survival Rate (%) ([3]; single agent 1 nM (Table 2)): 100.52%

[Mn+2] [manganese]
Survival Rate (%) ([3]; single agent 1 nM (Table 2)): 104.35%

[Zn+2] [zinc]
Survival Rate (%) ([3]; single agent 1 nM (Table 2)): 104.71%

copper gluconate [cupric]
Survival Rate (%) ([1]; single agent 16 nM): 103.71% | Survival Rate (%) ([1]; single agent 41 nM): 103.97% | Survival Rate (%) ([1]; single agent 83 nM): 101.73% | Survival Rate (%) ([2]; single agent 16 nM): 102.03% | Survival Rate (%) ([2]; single agent 41 nM): 102.19% | Survival Rate (%) ([2]; single agent 83 nM): 98.35% | reduction in survival rate [3]: no significant reduction in survival rate | Survival Rate (%) ([3]; single agent 1 nM (Table 2)): 103.70% | Survival Rate (%) ([3]; single agent 80 nM (Table 3)): 109.28%
